Literature values as cited in patent US20240261238A1, “METHOD OF TREATING DRUG RESISTANT EPILEPSY” (ICAHN SCHOOL OF MEDICINE AT MOUNT SINAI, priority 2021, published 2024).

What was measured:
[1] = 0.5 mg/kg intravenous infusion given over 40 minutes
[2] = intranasal, total dose
[3] = intranasal for treatment of pain vs intravenous ketamine studies in depression
NMDA receptors = conditions: read-out: Ki for binding to NMDA receptors
[4] = iontophoretic patch, 33 men and women

## CNC1(c2ccccc2Cl)CCCCC1=O (racemic) [ketamine, 2-(2-chlorophenyl)-2-(methylamino)-cyclohexanone]
[1]
  duration of improvements in depression: up to 1 week
  serious adverse events: no serious adverse events
  time to improvements in depression post-injection: ≤ 2 h
[2]
  dose at which mild adverse effects (dysphoria and/or hallucinations) can occur: greater than 50 mg
  dose usually required for mild adverse effects (dysphoria and/or hallucinations): greater than 100 mg
[3]
  intranasal plasma levels lower than in intravenous studies: 3-4 fold
other
  serious adverse events caused by IV administration: No serious adverse events
IV, euphoria, elevated BP, increased libido, perceptual disturbances
  time by which side effects typically abate post-infusion: ≤ 80 min

## CN[C@@]1(c2ccccc2Cl)CCCCC1=O [R(−)]
NMDA receptors
  Ki: 1.1 µM

## CN[C@]1(c2ccccc2Cl)CCCCC1=O [S(+)-ketamine]
[4]
  potency relative to racemic mixture of ketamine: two times more potent
NMDA receptors
  Ki: 3.2 µM
